Values of other authors in patent US9173863B2, “Antiviral compound and COX-2 inhibitor combination therapy for functional somatic syndromes, including combination of famciclovir and celecoxib” (INNOVATIVE MED CONCEPTS, LLC, priority 2012, dated 2015).

Tested on: fibromyalgia patients
Settings: valacyclovir alone

For `CC(C)[C@H](N)C(=O)OCCOCn1cnc2c(=O)[nH]c(N)nc21` [valacyclovir], the “Treatment outcome in fibromyalgia patients” value is given as “not successful”.
